Test results from US20110257233A1, “BENZOISOTHIAZOLONES AS INHIBITORS OF PHOSPHOMANNOSE ISOMERASE” (Sanford-Burnham Medical Research Institute, priority 2010, published 2011).
≈ marks a conversion by molar mass, not a printed value. Like-named read-outs stand apart in the source and are kept apart here.

Key:
[1] = biological target: T1, phosphomannomutase 2 (PMM) (Homo sapiens, UniProt O15305); test: PMM enzyme inhibition assay; assay type: biochemical; settings: for IC50: mean of at least three determinations
T1 sequence (O15305 1-246): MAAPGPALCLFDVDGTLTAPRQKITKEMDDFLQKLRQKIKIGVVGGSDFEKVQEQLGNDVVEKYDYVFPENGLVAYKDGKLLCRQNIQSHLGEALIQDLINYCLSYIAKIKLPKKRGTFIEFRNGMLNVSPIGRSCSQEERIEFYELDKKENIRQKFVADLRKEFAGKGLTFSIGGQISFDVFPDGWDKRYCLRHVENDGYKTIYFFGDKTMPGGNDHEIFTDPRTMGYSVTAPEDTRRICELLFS

Plasma stability, human = assay type: in vitro ADME
From the text: (§1) ADME (absorption, distribution, metabolism, elimination) provides an efficient means of discovering potential issues with respect to bioavailability and the potential for in vivo efficiency. The microsomal stability assay measures a compound's potential to be metabolized by the liver and can also identify metabolic liabilities. The plasma stability assay gives essential information on whether a compound will be degraded in plasma. Finally, the Parallel Artificial Membrane Permeability Assay (PAMPA) measures compound diffusion rates through an artificial membrane to give valuable information on a compounds potential for intestinal absorption and tissue and cell permeability. [table]

Plasma stability, mouse = assay type: in vitro ADME
From the text: as §1

[2] = biological target: T2, phosphomannose isomerase (PMI) (Homo sapiens, UniProt P34949); test: PMI enzyme inhibition assay; assay type: biochemical
T2 sequence (P34949 1-423): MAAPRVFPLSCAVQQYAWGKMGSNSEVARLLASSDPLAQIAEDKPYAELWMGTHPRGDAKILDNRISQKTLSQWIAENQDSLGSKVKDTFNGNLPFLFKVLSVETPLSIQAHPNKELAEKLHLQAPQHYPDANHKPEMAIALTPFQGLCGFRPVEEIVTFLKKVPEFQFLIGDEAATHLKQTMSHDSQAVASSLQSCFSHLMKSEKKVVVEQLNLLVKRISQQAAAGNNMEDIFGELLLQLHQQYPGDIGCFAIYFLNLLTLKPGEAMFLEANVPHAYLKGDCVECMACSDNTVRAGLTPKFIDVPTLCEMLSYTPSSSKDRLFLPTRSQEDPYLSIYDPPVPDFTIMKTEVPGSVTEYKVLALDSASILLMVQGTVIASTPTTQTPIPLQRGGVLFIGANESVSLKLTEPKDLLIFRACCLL

[3] = tested on: protein glycosylation (mannose incorporated in proteins); test: Cellular assay: 3H-mannose incorporated in proteins vs glycolysis; assay type: cell-based
Procedure: A cellular assay was developed and utilized to provide proof-of-concept for the potential of the optimized PMI inhibitors as CDG therapeutics. […] Briefly. cells were preincubated with inhibitors and labeled with 3H-Mannose and 35S-Met/Cys. After washing and lysis, 3H- and 35S amounts were determined in the proteins.

[4] = Microsomal stability, mouse; assay type: in vitro ADME; settings: mouse liver microsomes
From the text: as §1

[5] = Parallel Artificial Membrane Permeability Assay (PAMPA); assay type: in vitro ADME; settings: diffusion through a lipid membrane
From the text: as §1

[6] = Microsomal stability, human; assay type: in vitro ADME; settings: human liver microsomes
From the text: as §1

[7] = tested on: Candida albicans (ATCC 10231); test: Microbial in vitro assay 640000; assay type: cell-based
Procedure: The methods employed in this study were adapted from the scientific literature to maximize reliability and reproducibility. The reference standards were run as an integral part of each assay to ensure the validity of the results obtained. The assays were performed under conditions described below. The literature reference(s) for each assay are also provided as follows: Enza Di Modugno, Isabelle […]. […] Antimicrobial Agents Chemotherapy 3: 40-48; […]., Pursiano, […]. and Price, K. E. (1973) In Vitro Activity of the Tribactam GV 104326 against Gram-Positive, Gram-Negative, and Anaerobic Bacteria. Antimicrobial Agents and Chemotherapy, 38: 2362-2368, 1994; Enza Di Modugno, Isabelle […]. […] Antimicrobial Agents Chemotherapy 3: 40-48; and […]., Pursiano, […]. and Price, K. E. (1973) In vitro antibacterial activity of SM-7338, a carbapenem antibiotic with stability to dehydropeptidase I Antimicrobial Agents, Chemotherapy, 33 #2:215-222, 1989. 640000 Candida albicans (ATCC 10231); Culture Medium: Fluid Sabouraud Medium; […] Incubation Time/Temp: 20 hours @ 37° C.; […] Quantitation Method: Turbidity Measurement.

[8] = tested on: Cryptococcus neoformans (ATCC 24067); test: Microbial in vitro assay 647000; assay type: cell-based
Procedure: The methods employed in this study were adapted from the scientific literature to maximize reliability and reproducibility. The reference standards were run as an integral part of each assay to ensure the validity of the results obtained. The assays were performed under conditions described below. The literature reference(s) for each assay are also provided as follows: Enza Di Modugno, Isabelle […]. […] Antimicrobial Agents Chemotherapy 3: 40-48; […]., Pursiano, […]. and Price, K. E. (1973) In Vitro Activity of the Tribactam GV 104326 against Gram-Positive, Gram-Negative, and Anaerobic Bacteria. Antimicrobial Agents and Chemotherapy, 38: 2362-2368, 1994; Enza Di Modugno, Isabelle […]. […] Antimicrobial Agents Chemotherapy 3: 40-48; and […]., Pursiano, […]. and Price, K. E. (1973) In vitro antibacterial activity of SM-7338, a carbapenem antibiotic with stability to dehydropeptidase I Antimicrobial Agents, Chemotherapy, 33 #2:215-222, 1989. […] Incubation Time/Temp: 2 days @37° C.; […] Time of Assessment: 2 days; Quantitation Method: Turbidity Measurement

[9] = tested on: Pseudomonas aeruginosa (ATCC 27853); test: Microbial in vitro assay 614030; assay type: cell-based; settings: reference standard run with the assay
Procedure: The methods employed in this study were adapted from the scientific literature to maximize reliability and reproducibility. The reference standards were run as an integral part of each assay to ensure the validity of the results obtained. The assays were performed under conditions described below. The literature reference(s) for each assay are also provided as follows: Enza Di Modugno, Isabelle […]. […] Antimicrobial Agents Chemotherapy 3: 40-48; […]., Pursiano, […]. and Price, K. E. (1973) In Vitro Activity of the Tribactam GV 104326 against Gram-Positive, Gram-Negative, and Anaerobic Bacteria. Antimicrobial Agents and Chemotherapy, 38: 2362-2368, 1994; Enza Di Modugno, Isabelle […]. […] Antimicrobial Agents Chemotherapy 3: 40-48; and […]., Pursiano, […]. and Price, K. E. (1973) In vitro antibacterial activity of SM-7338, a carbapenem antibiotic with stability to dehydropeptidase I Antimicrobial Agents, Chemotherapy, 33 #2:215-222, 1989.

[10] = mean of at least three determinations
[11] = reference standard run with the assay

Cc1ccc(C)c(-n2sc3ccc(F)cc3c2=O)c1 [Compound 20]
IC50 [1]: > 20 µM | Plasma Stability (% remaining after 1 hour) (Plasma stability, human): 96.7 % remaining | Plasma Stability (% remaining after 1 hour) (Plasma stability, mouse): 99.4 % remaining | IC50 [2, 10]: 1.9 µM | fold increase in the amount of mannose incorporated in proteins vs glycolysis ([3]; 25.0 μM): 2.3 fold | fold increase in the amount of mannose incorporated in proteins vs glycolysis ([3]; 50 μM): 3.2 fold | fold increase in the amount of mannose incorporated in proteins vs glycolysis ([3]; 12.5 (head prints no unit)): 1.9 fold | Microsomal Stability (% remaining after 1 hour) [4]: 85.04 % remaining | Permeability [5]: Medium | Microsomal Stability (% remaining after 1 hour) [6]: 100 % remaining

CCOC(=O)c1ccc(-n2sc3ccccc3c2=O)cc1 [Compound 10]
IC50 [2, 10]: 7.2 µM

COc1cccc(-n2sc3ccccc3c2=O)c1 [Compound 15, 2-(3-Methoxyphenyl)-2-hydrobenzo[d]isothiazol-3-one]
IC50 [1]: > 20 µM | IC50 [2, 10]: 3.7 µM

CN(C)c1ccc(-n2sc3ccccc3c2=O)cc1 [Compound 12, 2-[4-(Dimethylamino)phenyl]-2-hydrobenzo[d]isothiazol-3-one]
IC50 [1]: 13.3 µM | IC50 [2, 10]: 1.9 µM | fold increase in the amount of mannose incorporated in proteins vs glycolysis ([3]; 50 μM): 1.0 fold

O=c1c2ccccc2sn1-c1cccc(C(F)(F)F)c1 [Compound 5, 2-[3(Trifluoromethyl)phenyl]-2-hydrobenzo[d]isothiazol-3-one]
IC50 [1]: > 20 µM | IC50 [2, 10]: 3.4 µM

COc1ccc(-n2sc3cc(F)ccc3c2=O)cc1 [Compound 18]
IC50 [1]: 12.9 µM

O=c1c2cc(F)ccc2sn1-c1ccccc1 [Compound 19, 5-Fluoro-2-phenylbenzo[d]isothiazol-3(2H)-one]
IC50 [1]: > 20 µM | PMM inhibition ([1]; tested up to 20 μM): inactive | MIC ([7]; ATCC10231, Candida albicans, turbidity, read-out: minimal inhibitory concentration): 3000 µg/mL (≈ 12.2 mM) | IC50 [2, 10]: 1.3 µM | MIC ([8]; ATCC24067, Cryptococcus neoformans, turbidity, read-out: minimal inhibitory concentration): 1000 µg/mL (≈ 4.08 mM)

O=c1c2ccccc2sn1-c1cccc(Cl)c1 [Compound 7, 2(3-Chlorophenyl)-2-hydrobenzo[d]isothiazol-3-one]
IC50 [2, 10]: 4.8 µM

COC(=O)c1cccc(-n2sc3ccccc3c2=O)c1 [Compound 9]
IC50 [1]: > 20 µM | IC50 [2, 10]: 4.9 µM

O=c1c2cc(F)ccc2sn1-c1ccccc1F [Compound 23]
Plasma Stability (% remaining after 1 hour) (Plasma stability, human): 35.7 % remaining | Plasma Stability (% remaining after 1 hour) (Plasma stability, mouse): 106.7 % remaining | IC50 [2, 10]: 4.3 µM | fold increase in the amount of mannose incorporated in proteins vs glycolysis ([3]; 25.0 μM): 0.7 fold | fold increase in the amount of mannose incorporated in proteins vs glycolysis ([3]; 50 μM): 2.5 fold | fold increase in the amount of mannose incorporated in proteins vs glycolysis ([3]; 12.5 (head prints no unit)): 9.1 fold | Microsomal Stability (% remaining after 1 hour) [4]: 98.40 % remaining | Permeability [5]: Medium | Microsomal Stability (% remaining after 1 hour) [6]: 27.66 % remaining

Cc1ccc(-n2sc3ccccc3c2=O)cc1 [Compound 4, 2-(4-Methylphenyl)-2-hydrobenzo[d]isothiazol-3-one]
IC50 [2, 10]: 3.6 µM

Cc1ccccc1-n1sc2cc(F)ccc2c1=O [Compound 16, 6-Fluoro-2-o-tolylbenzo[d]isothiazol-3(2H)-one]
Plasma Stability (% remaining after 1 hour) (Plasma stability, human): 49.7 % remaining | Plasma Stability (% remaining after 1 hour) (Plasma stability, mouse): 117.5 % remaining | IC50 [2, 10]: 2.9 µM | fold increase in the amount of mannose incorporated in proteins vs glycolysis ([3]; 25.0 μM): 2.8 fold | fold increase in the amount of mannose incorporated in proteins vs glycolysis ([3]; 50 μM): 1.7 fold | fold increase in the amount of mannose incorporated in proteins vs glycolysis ([3]; 12.5 (head prints no unit)): 2.7 fold | Microsomal Stability (% remaining after 1 hour) [4]: 90.03 % remaining | Permeability [5]: Medium | Microsomal Stability (% remaining after 1 hour) [6]: 90 % remaining

COc1ccc(-n2sc3ccc(F)cc3c2=O)cc1 [Compound 22, 5-Fluoro-2-(4-methoxyphenyl)-2-hydrobenzo[d]isothiazol-3-one]
IC50 [1]: 9.1 µM | Plasma Stability (% remaining after 1 hour) (Plasma stability, human): 107.0 % remaining | Plasma Stability (% remaining after 1 hour) (Plasma stability, mouse): 96.3 % remaining | Microsomal Stability (% remaining after 1 hour) [4]: 84.06 % remaining | Permeability [5]: Low | Microsomal Stability (% remaining after 1 hour) [6]: 100 % remaining

O=c1c2cc(F)ccc2sn1-c1ccc(Cl)cc1 [Compound 24, 2-(4-Chlorophenyl)-5-fluoro-2-hydrobenzo[d]isothiazol-3-one]
IC50 [2, 10]: 1.8 µM

O=c1c2cc(F)ccc2sn1-c1ccc(F)cc1 [Compound 21, 5-Fluoro-2-(4-fluorophenyl)-2-hydrobenzo[d]isothiazol-3-one]
IC50 [1]: > 20 µM | Plasma Stability (% remaining after 1 hour) (Plasma stability, human): 0.0 % remaining | Plasma Stability (% remaining after 1 hour) (Plasma stability, mouse): 71.4 % remaining | Microsomal Stability (% remaining after 1 hour) [4]: 81.24 % remaining | Permeability [5]: High | Microsomal Stability (% remaining after 1 hour) [6]: 24.93 % remaining

Gentamicin
CONCURRENT (reference compound data) [9]: 0.3 µg/mL

O=c1c2ccccc2sn1-c1ccccc1 [Compound 1, 2-Phenyl-2-hydrobenzo[d]isothiazol-3-one]
IC50 [2]: 6.4 µM

Cc1ccc(C)c(-n2sc3cc(F)ccc3c2=O)c1 [Compound 17]
IC50 [1]: 7.3 µM | IC50 [2, 10]: 1.1 µM

C[C@@H]1[C@H](O)[C@@H](C)/C=C/C=C/C=C/C=C/C=C/C=C/C=C/[C@H](O[C@@H]2O[C@H](C)[C@@H](O)[C@H](N)[C@@H]2O)C[C@@H]2O[C@](O)(C[C@@H](O)C[C@@H](O)[C@H](O)CC[C@@H](O)C[C@@H](O)CC(=O)O[C@H]1C)C[C@H](O)[C@H]2C(=O)O [Amphotericin B Solubilized, reference compound]
CONCURRENT (reference compound data) [7, 11]: 0.1 µg/mL | CONCURRENT (reference compound data) [8, 11]: 0.1 µg/mL

Cc1cccc(-n2sc3ccccc3c2=O)c1 [Compound 3, 2-(3-Methylphenyl)-2-hydrobenzo[d]isothiazol-3-one]
IC50 [2, 10]: 6 µM
